# Results from patent US20030134779A1, “Method and composition for treatment and/or prevention of antibiotic-resistant microorganism infections” (priority 2002, published 2003).
# Experiments:
# [1] = system: S. typhimurium strain DT 104; settings: isolates with decreased fluoroquinolone sensitivity; cited from earlier work
# S. aureus SHY97-3906 = experiment: Bacterial growth in MHB; type: cell-based, Staphylococcus aureus; settings: combination of erythromycin and LF; 18-h of incubation
# Description: (§1) The effect of LF or LFC at concentration sub-MICs alone or in combination with sub-MICs of antibiotics on bacterial growth rate of S. aureus, E. coli and K. pneumoniae was determined by monitoring bacterial cultures in MHB with the O.D.600 nm or by the count of colony forming unit per ml (cfu/ml). A volume of 2.5 ml of overnight cultures in MHB adjusted to 0.5-1 McFarland standard in saline were used to inoculate a final volume of 25 ml of fresh MHB containing the desired concentration of tested compounds. All flasks were then incubated at 37° C. with agitation (200 rpm) for 9 h. Aliquots were removed every hour to determine the culture turbidity using the spectrophotometer Philips PU 8800 (Pye Unican Ltd, Cambridge, UK). The combined antibiotic effect on bacterial growth was also determined using concentrations of LF in the presence of different concentrations of antibiotics. Briefly, a volume of 3 ml of fresh MHB containing desired concentration of drugs was adjusted to an optical density of 0.4 at 540 nm after an overnight culture. The culture was then incubated at 37° C with agitation (200 rpm). After incubation, aliquots were removed to determine the culture turbidity (OD540nm) or cfu/ml. To determine the influence of the level of iron on of the growth inhibition by the test compound, 5 μM of FeCl3 were added to the media.
# E. coli SHY97-3923 = experiment: Bacterial growth in MHB; type: cell-based, Escherichia coli
# Description: as §1
# S. aureus strains = experiment: Disk diffusion susceptibility test and cefinase test; type: cell-based, Staphylococcus aureus; settings: β-lactamase producing strains
# Description: For quality control, disk diffusion susceptibility tests, as recommended by the National Committee for Clinical Laboratory Standard, were performed on all strains using standard disk of various antibiotics. After 18 h of incubation at 37° C., the diameter of the zone of complete inhibition of bacterial growth around each disk was measured. Isolates were categorized as sensitive or resistant for a given antibiotic using the recommended interpretative guidelines of the manufacturer.
# [2] = system: Escherichia coli strain harboring TEM-12 beta-lactamase; settings: cited from earlier work
# [3] = system: Escherichia coli strain harboring wild TEM-1 beta-lactamase; settings: cited from earlier work
# [4] = system: Escherichia coli strain harboring TEM-10 beta-lactamase; settings: cited from earlier work
# [5] = system: β-lactamase activity of S. aureus PC-1; experiment: β-lactamase activity, nitrocefin assay, bovine LF/LFC; type: cell-based; settings: LF 1 mg/ml (P<0.05); LFC 32 or 64 μg/ml (P<0.001)
# Description: The effects of sub-MICs of LF (1 mg/ml), LFC (32 and 64 μg/ml) alone or in combination with ampicillin (4μg/ml) or penicillin G (8 μg/ml) were evaluated on the β-lactamase activity of S. aureus strains SHY97-4320 and PC-1. The chromogenic cephalosporin nitrocefin (Becton Dickinson, Microbiology, Cockeysville, Md.) was used in a quantitative spectrophotometric assay. Bacterial cells were first exposed during 4 and 22-h to drugs in broth. The number of bacteria (cfu/ml) were determined and cells aliquots were centrifuged at each point in time. The pellets were suspended in 10 mM HEPES buffer (pH 7.4) to an OD415 nm of 1 for PC-1 and 2 for SHY97-4320. Nitrocefin (100 μM) was added to 100 μl of cells in a final volume of 1 ml. Hydrolysis was measured at 486 nm on spectrophotometer. β-lactamase activity was expressed as ΔO.D.486 nm/min and corrected for bacterial OD.
# S. aureus PC-1 [6] = experiment: Bacterial growth in MHB; type: cell-based, Staphylococcus aureus; settings: LF or LFC alone, sub-MIC
# Description: as §1
# S. aureus PC-1 [7] = experiment: Cell morphology by transmission electron microscopy; type: cell-based, Staphylococcus aureus
# Description: Bacterial cells were grown overnight on MHA or MHB containing sub-MICs of penicillin G with or without LF or LFC. Microorganisms were prepared for transmission electron microscopy by fixation with glutaraldehyde followed by ferritin labelling. This method allows good- preservation of capsular material. Briefly, bacterial cells grown in the presence or absence of antibiotics were fixed in cacodylate buffer (0.1 M, pH 7.0) containing 5% (v/v) glutaraldehyde, for 2 h at 20° C. Fixed microorganims were suspended in cacodylate buffer and allowed to react with the polycationic ferritin (Sigma Chemicals, St-Louis, Mo.; final concentration 1.0 mg/ml) for 30 min at 20° C. The reaction was slowed down by 10-fold dilution with buffer, and the microorganisms were centrifuged and washed three times in cacodylate buffer. Bacterial cells were then immobilized in 4% (w/v) agar, washed 5 times in cacodylate buffer and post-fixed with 2% (w/v) osmium tetroxide for 2 h. Washings were repeated as above, and the samples dehydrated in a graded series of acetone washes. Samples were then washed twice in propylene oxide and embedded in Spurr low-viscosity resin. Thin sections were post-stained with uranyl acetate and lead citrate and examined with an electron microscope (Philips 201) at an accelerating voltage of 60 kV.
# Bacterial cells of PC-1 (a constitutively high producing β-lactamase strain) were grown overnight in MHB containing 8 μg/ml of penicillin G, 16 μg/ml of LFC alone or in combination for 4-h at 37° C. with agitation at 150 rpm. Bacteria cell morphology was evaluated by transmission electron microscopy after fixation and ferritin labelling method as previously described.
# K. pneumoniae SHY99-723 = experiment: Bacterial growth in MHB; type: cell-based, Klebsiella pneumoniae
# Description: as §1
compound,measurement,setting,value
O=C(O)c1cn(C2CC2)c2cc(N3CCNCC3)c(F)cc2c1=O [ciprofloxacin],MIC's of ciprofloxacin,[1],0.25 to 1.0 mg/L
CC[C@H]1OC(=O)[C@H](C)[C@@H](O[C@H]2C[C@@](C)(OC)[C@@H](O)[C@H](C)O2)[C@H](C)[C@@H](O[C@@H]2O[C@H](C)C[C@H](N(C)C)[C@H]2O)[C@](C)(O)C[C@@H](C)C(=O)[C@H](C)[C@@H](O)[C@]1(C)O [erythromycin],growth,S. aureus SHY97-3906,affected
Cc1nnc(SCC2=C(C(=O)O)N3C(=O)[C@@H](NC(=O)Cn4cnnn4)[C@H]3SC2)s1 [cefazolin],growth,E. coli SHY97-3923; cefazolin alone (0.5 g),not able to reduce growth
same,growth,E. coli SHY97-3923; cefazolin with LFC,completely inhibit bacterial growth
CC1(C)S[C@@H]2[C@H](NC(=O)[C@H](N)c3ccccc3)C(=O)N2[C@H]1C(=O)O [ampicillin],susceptibility by standard disk diffusion and cefinase test,S. aureus strains,resistance
CO/N=C(\C(=O)N[C@@H]1C(=O)N2C(C(=O)O)=C(COC(C)=O)CS[C@H]12)c1csc(N)n1 [cefotaxime],conventional MIC of cefotaxime,[2],0.06 mg/L
same,MIC of cefotaxime,[3],0.03 mg/L
same,MIC of cefotaxime,[4],0.25 mg/L
CC[C@H](C)[C@@H]1NC(=O)[C@H](CO)NC(=O)[C@@H]2CCCN2C(=O)[C@H](C)NC(=O)CNC(=O)[C@H](CC(C)C)NC(=O)[C@H](CCCCN)NC(=O)[C@H](CCCCN)NC(=O)[C@H](CCSC)NC(=O)[C@H](CCCNC(=N)N)NC(=O)[C@H](Cc2c[nH]c3ccccc23)NC(=O)[C@H](CCC(N)=O)NC(=O)[C@H](Cc2c[nH]c3ccccc23)NC(=O)[C@H](CCCNC(=N)N)NC(=O)[C@H](CCCNC(=N)N)NC(=O)[C@@H](NC(=O)[C@H](CCCCN)NC(=O)[C@@H](N)Cc2ccccc2)CSSC[C@@H](C(=O)N[C@H](C(=O)N[C@@H](CCCNC(=N)N)C(=O)N[C@@H](CCCNC(=N)N)C(=O)N[C@@H](C)C(=O)N[C@@H](Cc2ccccc2)C(=O)O)C(C)C)NC(=O)[C@H]([C@@H](C)O)NC1=O [LFC],β-lactamase activity,[5],strong
same,growth,S. aureus PC-1 [6],delayed growth
same,mesosome structures arising from the septa and cell wall,S. aureus PC-1 [7]; LFC 16 μg/ml,induced formation of mesosome structures
same,bacterial lysis,"S. aureus PC-1 [7]; LFC 16 μg/ml alone, 4-h",A large percentage of lysed bacteria
same,bacterial lysis by LFC,S. aureus PC-1 [7]; LFC 16 μg/ml in the presence of penicillin G 8 μg/ml,enhanced
same,shape and size of cells,S. aureus PC-1 [7]; exposure to LF or LFC,affected the shape and the size
neomycin,effect of neomycin on bacterial growth,E. coli SHY97-3923; 16 μg/ml LFC (1/16 MIC) added,significantly enhanced
same,effect of neomycin on bacterial growth,E. coli SHY97-3923; 1 mg/ml of LF added,significantly enhanced
same,reduction of bacterial growth rate with neomycin,K. pneumoniae SHY99-723; 16 μg/ml LFC (1/16 MIC) added,2 times
same,reduction of bacterial growth rate with neomycin,K. pneumoniae SHY99-723; 0.5 mg/ml of LF added,2 times
